Holding throughout (experiment): Greenhouse test, solo and combination, post-emergence, 20 DAT
For one experiment, the system named is LOLRI. It counts as in vivo, Lolium rigidum. The method, then: (§1) The test plants have been seeded, separately for each species, in plastic containers in sandy loamy soil containing 5% of organic matter.
(§2) For the post-emergence treatment, the plants were first grown to the 2 leaf station (GS 12) and applied at GS 12-19 depending on the species. The herbicidal compositions were suspended or emulsified in water as distribution medium and sprayed using finely distributing nozzles.
(§3) The plants have been cultivated due to their individual requirements at 10-25° C. and 20-35° C. The plants were irrigated due to their necessity.
(§4) The racemic mixture (±)-2-exo-(2-Methylbenzyloxy)-1-methyl-4-isopropyl-7-oxabicyclo[2.2.1]heptane was used as herbicide A and formulated as emulsifiable concentrate having an active ingredient concentration of 750 g/l.
(§5) Cyhalofop-butyl (herbicide B.5) was used as an emulsifiable concentrate (EC) formulation having an active ingredient concentration of 200 g/l.
(§6) Metsulfuron-methyl (herbicide B.53) was used as a water soluble granule (SG) formulation having an active ingredient concentration of 20%.
(§7) Bispyribac-sodium (herbicide B.23) was used as a soluble concentrate (SL) formulation having an active ingredient concentration of 408 g/l.
(§8) Quizalofop-P-ethyl (herbicide B.217) was used as a suspension concentrate (SC) formulation having an active ingredient concentration of 106 g/l.
(§9) In the following experiments, the herbicidal activity for the individual herbicide compounds (solo and mixture applications) was assessed 20 days after treatment (DAT).
(§10) The evaluation for the damage on undesired weeds caused by the chemical compositions was carried out using a scale from 0 to 100%, compared to the untreated control plants. Here, 0 means no damage and 100 means complete destruction of the plants.
(§11) The plants used in the greenhouse experiments belonged to the following species:
(§12) E=X+Y−(X·Y/100) • where X=effect in percent using herbicide A at an application rate a; • Y=effect in percent using herbicide B at application rate b; • E=expected effect (in %) of herbicide A+herbicide B at application rates a+b.
(§13) The value E corresponds to the effect (plant damage or injury) which is to be expected if the activity of the individual compounds is additive. If the observed effect is higher than the value E calculated according to the Colby equation, a synergistic effect is present.
(§14) Tables 3 to 6 below relate the herbicidal activity, in greenhouse trials, of the individual actives and the combination applied at different rates and ratios, in post-emergence application at 20 days after treatment (DAT).

Another experiment concerns PAPRH. It counts as in vivo, Papaver rhoeas. The method, then:
as §1, §2, §3, §4, §5, §6, §7, §8, §9, §10, §11, §12, §13, §14

The subject of a further experiment is BRSNW. It counts as in vivo, Brassica napus. The method, then: as §1, §2, §3, §4, §5, §6, §7, §8, §9, §10, §11, §12, §13, §14
Another experiment relates to MATIN. It counts as in vivo, Matricaria inodora. The method, then: as §1, §2, §3, §4, §5, §6, §7, §8, §9, §10, §11, §12, §13, §14
In another experiment the test system is GALAP. It counts as in vivo, Galium aparine. The procedure:
as §1, §2, §3, §4, §5, §6, §7, §8, §9, §10, §11, §12, §13, §14

The subject of a further experiment is ALOMY. It counts as in vivo, Alopecurus myosuroides. The procedure:
as §1, §2, §3, §4, §5, §6, §7, §8, §9, §10, §11, §12, §13, §14

For the next experiment, the system named is BROST. It counts as in vivo, Bromus sterilis. The method, then: as §1, §2, §3, §4, §5, §6, §7, §8, §9, §10, §11, §12, §13, §14

Experimental findings from patent publication US12336536B2, “Method for controlling herbicide resistant or tolerant weeds” (BASF Agro B.V., priority 2015, dated 2025) are described below.

Consider `COC(=O)c1ccccc1S(=O)(=O)NC(=O)Nc1nc(C)nc(OC)n1` [metsulfuron-methyl], for which the Herbicidal activity in the experiment with LOLRI (solo application 1 g ai/ha) worked out at 10%; with PAPRH (solo application 1 g ai/ha) it was 0%; in the experiment with PAPRH (solo application 4 g ai/ha), 50%; in the experiment on PAPRH (solo application 8 g ai/ha), 98%; with BRSNW (solo application 1 g ai/ha) it was 90%; in the experiment on BRSNW (solo application 2 g ai/ha), 95%. The Herbicidal activity was 98% in the experiment with BRSNW (solo application 8 g ai/ha); 90% in the experiment on MATIN (solo application 1 g ai/ha); 90% in the experiment with MATIN (solo application 2 g ai/ha); 85% in the experiment with MATIN (solo application 4 g ai/ha); 90% with MATIN (solo application 8 g ai/ha); 30% in the experiment with GALAP (solo application 4 g ai/ha). Further, the Herbicidal activity in the experiment on GALAP (solo application 8 g ai/ha) stood at 25%; in the experiment with ALOMY (solo application 1 g ai/ha) it was 0%.
Consider `CCCCOC(=O)[C@@H](C)Oc1ccc(Oc2ccc(C#N)cc2F)cc1` [cyhalofop-butyl], for which the Herbicidal activity in the experiment with LOLRI (solo application 12.5 g ai/ha) is recorded as 25%; in the experiment on PAPRH (solo application 12.5 g ai/ha), 0%; with PAPRH (solo application 50 g ai/ha), 0%; in the experiment on BROST (solo application 100 g ai/ha), 0%; with BRSNW (solo application 100 g ai/ha), 0%; in the experiment on MATIN (solo application 100 g ai/ha) it was 0%. Moreover, the Herbicidal activity with GALAP (solo application 50 g ai/ha) stood at 0%; with GALAP (solo application 100 g ai/ha), 0%; in the experiment on ALOMY (solo application 25 g ai/ha) it was 5%; with ALOMY (solo application 50 g ai/ha), 20%.
Consider `CCOC(=O)[C@@H](C)Oc1ccc(Oc2cnc3cc(Cl)ccc3n2)cc1` [quizalofop-P-ethyl], for which the Herbicidal activity is 80% with LOLRI (solo application 15 g ai/ha); 95% in the experiment on LOLRI (solo application 30 g ai/ha); 25% with PAPRH (solo application 15 g ai/ha); 15% in the experiment on BROST (solo application 15 g ai/ha); 50% with BROST (solo application 30 g ai/ha); 80% in the experiment with BROST (solo application 60 g ai/ha). The Herbicidal activity is 95% in the experiment on BROST (solo application 120 g ai/ha); 0% in the experiment with BRSNW (solo application 120 g ai/ha); 0% in the experiment on MATIN (solo application 15 g ai/ha); 0% with MATIN (solo application 30 g ai/ha); 10% with MATIN (solo application 60 g ai/ha); 0% in the experiment on GALAP (solo application 15 g ai/ha). The Herbicidal activity with GALAP (solo application 30 g ai/ha) is on record as 0%; with ALOMY (solo application 15 g ai/ha) it was 60%; in the experiment on ALOMY (solo application 30 g ai/ha), 65%; in the experiment on ALOMY (solo application 120 g ai/ha), 85%.
Consider `COc1cc(OC)nc(Oc2cccc(Oc3nc(OC)cc(OC)n3)c2C(=O)O)n1` [bispyribac-sodium], for which the Herbicidal activity in the experiment on LOLRI (solo application 60 g ai/ha) is 5%; with PAPRH (solo application 15 g ai/ha) it was 0%; in the experiment on PAPRH (solo application 60 g ai/ha), 50%; in the experiment on PAPRH (solo application 120 g ai/ha), 50%; in the experiment on BRSNW (solo application 15 g ai/ha), 98%; in the experiment with MATIN (solo application 60 g ai/ha), 85%. The Herbicidal activity in the experiment with MATIN (solo application 120 g ai/ha) is 90%; with GALAP (solo application 15 g ai/ha), 40%; with GALAP (solo application 30 g ai/ha), 65%; with GALAP (solo application 120 g ai/ha) it was 95%; in the experiment on ALOMY (solo application 30 g ai/ha), 0%; in the experiment with ALOMY (solo application 60 g ai/ha), 0%.
